Values joined by “and” are separate entries in the source; they are usually repeats but may differ in a detail not shown here. Equal entries are not always repeated. Toxic doses and inconclusive results are not listed.

The subject of the test is P388 leukemia ip, CD2F1 mice, survival T/C. As to the kind of experiment: NCI In Vivo Anticancer Drug Screen. Data for tumor model P388 Leukemia (intraperitoneal) in CD2F1 (CDF1) mice. The conditions noted are these: endpoint: median survival time, higher = longer survival. An outline of the steps: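 Mice carrying the transplanted tumor received test compound or vehicle. Survival was recorded in each group, and the value is the treated-group measurement divided by that of the vehicle-treated control group.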

The mark [1] stands for this setting: dose: 25.0 mg/kg/injection, schedule: Q01DX005 (ip), vehicle: saline with Tween-80.
[2] abbreviates: dose: 50.0 mg/kg/injection, schedule: Q01DX005 (ip), vehicle: saline with Tween-80.
The mark [3] stands for this setting: dose: 100.0 mg/kg/injection, schedule: Q01DX005 (ip), vehicle: saline with Tween-80.
Where [4] appears, read: dose: 200.0 mg/kg/injection, schedule: Q01DX005 (ip), vehicle: saline with Tween-80.
The mark [5] stands for this setting: dose: 50.0 mg/kg/injection, schedule: Q01DX009 (ip), vehicle: Klucel (hydroxypropylcellulose) (HPC).
Setting [6] is: dose: 100.0 mg/kg/injection, schedule: Q01DX009 (ip), vehicle: Klucel (hydroxypropylcellulose) (HPC).
Setting [7] is: dose: 200.0 mg/kg/injection, schedule: Q01DX009 (ip), vehicle: Klucel (hydroxypropylcellulose) (HPC).
Where [8] appears, read: dose: 50.0 mg/kg/injection, schedule: Q01DX009 (ip), vehicle: saline.
Where [9] appears, read: dose: 100.0 mg/kg/injection, schedule: Q01DX009 (ip), vehicle: saline.
The mark [10] stands for this setting: dose: 200.0 mg/kg/injection, schedule: Q01DX009 (ip), vehicle: saline.
Setting [11] is: dose: 100.0 mg/kg/injection, schedule: Q01DX001 (ip), vehicle: saline.
Setting [12] is: dose: 200.0 mg/kg/injection, schedule: Q01DX001 (ip), vehicle: saline.
Where [13] appears, read: dose: 60.0 mg/kg/injection, schedule: Q01DX005 (ip), vehicle: saline with Tween-80.
Setting [14] is: dose: 25.0 mg/kg/injection, schedule: Q01DX009 (ip), vehicle: saline with Tween-80.
The mark [15] stands for this setting: dose: 50.0 mg/kg/injection, schedule: Q01DX009 (ip), vehicle: saline with Tween-80.
Where [16] appears, read: dose: 100.0 mg/kg/injection, schedule: Q01DX009 (ip), vehicle: saline with Tween-80.
The mark [17] stands for this setting: dose: 200.0 mg/kg/injection, schedule: Q01DX009 (ip), vehicle: saline with Tween-80.
[18] abbreviates: dose: 50.0 mg/kg/injection, schedule: Q01DX005 (ip), vehicle: Klucel (hydroxypropylcellulose) (HPC).
Setting [19] is: dose: 100.0 mg/kg/injection, schedule: Q01DX005 (ip), vehicle: Klucel (hydroxypropylcellulose) (HPC).
[20] abbreviates: dose: 200.0 mg/kg/injection, schedule: Q01DX005 (ip), vehicle: Klucel (hydroxypropylcellulose) (HPC).

Turning to `[O-][n+]1c(Cl)c(Cl)[n+]([O-])c2[nH]c(C(F)(F)F)nc21`, the T/C reads like this: under setting [1], 103 % of control; under setting [2], 96 % of control; under setting [3], 102 % of control; under setting [4], 90 % of control and 96 % of control.

As for `COc1ccc(C2C(S(=O)(=O)c3ccccc3)CON2c2ccccc2)cc1` (centres undefined), the T/C under setting [2] is 97 % of control, the T/C under setting [3] is 96 % of control and the T/C under setting [4] was 89 % of control.

Turning to `COc1cc(N2C(=O)CSC2=S)cc(OC)c1OC`, the T/C was 100 % of control under setting [5], 89 % of control under setting [6] and 101 % of control under setting [7].

Take `CS/N=C(\c1ccccc1)N1CCOCC1`: the T/C is, setting by setting: (dose: 60.0 mg/kg/injection, schedule: Q01DX005 (ip), vehicle: Klucel (hydroxypropylcellulose) (HPC)) 100 % of control; (dose: 120.0 mg/kg/injection, schedule: Q01DX005 (ip), vehicle: Klucel (hydroxypropylcellulose) (HPC)) 98 % of control.

As for `CC(N)=NC(C)C`, the T/C by setting is: under setting [8], 101 % of control; under setting [9], 101 % of control; under setting [10], 99 % of control.

For the compound `O=C1CCCN1C(=O)C1CC1`, the T/C is, setting by setting: (dose: 50.0 mg/kg/injection, schedule: Q01DX001 (ip), vehicle: saline) 100 % of control; under setting [11], 109 % of control; under setting [12], 100 % of control.

As for `CC(=O)C1C(=O)C(=O)N(c2ccccc2C)C1=O` (centres undefined), the T/C by setting is: under setting [5], 105 % of control; under setting [13], 103 % of control; under setting [6], 107 % of control; (dose: 120.0 mg/kg/injection, schedule: Q01DX005 (ip), vehicle: saline with Tween-80) 100 % of control; under setting [7], 110 % of control.

As to `CC(C)NC(=O)OCc1c(COC(=O)NC(C)C)c2n(c1Br)CCC2`, the T/C under setting [1] was 186 % of control.

For the compound `C=CCN(CC=C)P(=O)(N1CC1)N1CC1C` (centres undefined), the T/C is, setting by setting: (dose: 0.6 mg/kg/injection, schedule: Q01DX009 (ip), vehicle: saline) 189 % of control; (dose: 0.9 mg/kg/injection, schedule: Q01DX009 (ip), vehicle: saline) 174 % of control.

As to `CCOC(=O)CCN(CC)CC`, the T/C by setting is: (dose: 88.0 mg/kg/injection, schedule: Q04DX003 (ip), vehicle: saline) 100 % of control; under setting [9], 116 % of control; (dose: 132.0 mg/kg/injection, schedule: Q04DX003 (ip), vehicle: saline) 95 % of control; under setting [10], 111 % of control; (dose: 200.0 mg/kg/injection, schedule: Q04DX003 (ip), vehicle: saline) 109 % of control; (dose: 300.0 mg/kg/injection, schedule: Q04DX003 (ip), vehicle: saline) 109 % of control. Besides, the T/C is 111 % of control (dose: 400.0 mg/kg/injection, schedule: Q01DX009 (ip), vehicle: saline) and 100 % of control (dose: 400.0 mg/kg/injection, schedule: Q04DX003 (ip), vehicle: saline).

`Cc1c(Cl)cnc(N)c1Cl` (tested in a mixture with another compound): the T/C reads like this: under setting [14], 93 % of control; under setting [15], 90 % of control; under setting [16], 93 % of control; under setting [17], 95 % of control.

For `CC1=CC2=C(C=O)C(=O)[C@](C)(O)[C@@H](O)C2=CO1`, the T/C (dose: 12.5 mg/kg/injection, schedule: Q01DX009 (ip), vehicle: saline with Tween-80) is 109 % of control and the T/C under setting [14] is 118 % of control.

For `N=c1nc(N)nc2c3ccccc3nnn12`, the T/C (dose: 15.0 mg/kg/injection, schedule: Q01DX005 (ip), vehicle: saline with Tween-80) was 109 % of control; the T/C (dose: 30.0 mg/kg/injection, schedule: Q01DX005 (ip), vehicle: saline with Tween-80) is 109 % of control; the T/C under setting [13] is 106 % of control and 109 % of control.

On to `Cc1nc(Nc2ccccc2)c2c(C)c(Cc3ccccc3)[nH]c2n1`, for which the T/C under setting [18] is 89 % of control, the T/C under setting [19] was 86 % of control and the T/C under setting [20] was 87 % of control.

On to `C=C1SC(=Nc2ccc(Cl)cc2)N(c2nc(Cl)nc(Cl)n2)C12CCCCC2`, for which the T/C reads like this: under setting [8], 98 % of control; under setting [9], 90 % of control; under setting [10], 89 % of control.

For the compound `C=C1C(=O)OC2/C=C(\CO)C3OC3C3OC3(C)CC(OC(=O)/C(=C/C)CO)C12` (centres undefined), the T/C is 99 % of control and 106 % of control (dose: 3.12 mg/kg/injection, schedule: Q01DX005 (ip), vehicle: Klucel (hydroxypropylcellulose) (HPC)); 100 % of control and 107 % of control and 110 % of control (dose: 6.25 mg/kg/injection, schedule: Q01DX005 (ip), vehicle: Klucel (hydroxypropylcellulose) (HPC)); 105 % of control and 106 % of control (dose: 12.5 mg/kg/injection, schedule: Q01DX005 (ip), vehicle: Klucel (hydroxypropylcellulose) (HPC)); 100 % of control and 109 % of control under setting [18].

Regarding `CCOC(=O)C(C)(C)Br`, the T/C (dose: 100.0 mg/kg/injection, schedule: Q01DX009 (ip), vehicle: saline sonified) is 105 % of control; the T/C (dose: 200.0 mg/kg/injection, schedule: Q01DX009 (ip), vehicle: saline sonified) was 105 % of control; the T/C (dose: 400.0 mg/kg/injection, schedule: Q01DX009 (ip), vehicle: saline sonified) was 115 % of control.

On to `CC1(C)CC(C)(OC(=O)c2ccc(F)cc2)[N+]([O-])=N1` (centres undefined), for which the T/C is 115 % of control (dose: 4.7 mg/kg/injection, schedule: Q01DX009 (ip), vehicle: other); 112 % of control (dose: 9.4 mg/kg/injection, schedule: Q01DX009 (ip), vehicle: other); 106 % of control (dose: 18.8 mg/kg/injection, schedule: Q01DX009 (ip), vehicle: other); 120 % of control (dose: 37.5 mg/kg/injection, schedule: Q01DX009 (ip), vehicle: other); 106 % of control (dose: 75.0 mg/kg/injection, schedule: Q01DX009 (ip), vehicle: other); 101 % of control (dose: 150.0 mg/kg/injection, schedule: Q01DX009 (ip), vehicle: other).

With `O=C1CN(CCN2CC(=O)N(CN3CCOCC3)C(=O)C2)CC(=O)N1CN1CCOCC1`, the T/C (dose: 12.5 mg/kg/injection, schedule: Q01DX005 (ip), vehicle: water) was 108 % of control and 111 % of control and 119 % of control.

Take `NC(CCCCNC1CCCCC1)C(=O)O` (centres undefined): the T/C was 106 % of control under setting [16]; 105 % of control under setting [17]; 100 % of control (dose: 400.0 mg/kg/injection, schedule: Q01DX009 (ip), vehicle: saline with Tween-80).

`O=C1Cc2ccccc2C(=O)N1CCN1CCOCC1`: the T/C is 101 % of control under setting [11] and 108 % of control under setting [12].

For `CC(=O)OCC1OC(n2cnc3c(Cl)nc(Cl)nc32)C(OC(C)=O)C1OC(C)=O` (centres undefined), the T/C was 102 % of control under setting [18], 102 % of control under setting [19] and 115 % of control under setting [20].

In the case of `CCCCCCCCCCCCNNC(=O)[C@@H]1[C@H](c2cc(OC)c(OC)c(OC)c2)c2cc3c(cc2[C@H](O)[C@H]1CO)OCO3`, the T/C was 117 % of control and 124 % of control under setting [2]; 122 % of control under setting [3].

As for `COc1ccc(-n2c(C)csc2=S)cc1`, the T/C is, setting by setting: (dose: 50.0 mg/kg/injection, schedule: Q04DX003 (ip), vehicle: saline with Tween-80) 100 % of control; (dose: 100.0 mg/kg/injection, schedule: Q04DX003 (ip), vehicle: saline with Tween-80) 100 % of control; (dose: 200.0 mg/kg/injection, schedule: Q04DX003 (ip), vehicle: saline with Tween-80) 95 % of control.

On to `CCN(CC)CCOC(=O)C(c1ccccc1)C(C)(O)CC` (centres undefined), for which the T/C (dose: 25.0 mg/kg/injection, schedule: Q01DX009 (ip), vehicle: saline) was 105 % of control; the T/C under setting [8] was 100 % of control; the T/C under setting [9] is 115 % of control.

For the compound `CCC1COCC1Cc1cncn1C` (centres undefined), the T/C was 100 % of control (dose: 60.0 mg/kg/injection, schedule: Q01DX005 (ip), vehicle: saline) and 103 % of control (dose: 120.0 mg/kg/injection, schedule: Q01DX005 (ip), vehicle: saline).

As to `CC(C)(C)N=C(CCNc1ccccc1Cl)Nc1ccccc1Cl`, the T/C runs as follows: under setting [15], 103 % of control; under setting [16], 103 % of control; under setting [17], 86 % of control.
